Our source for the ring closure, isolated yield and IC50 values is US11814391B2, “Macrocyclic compounds for the treatment of medical disorders” (Achillion Pharmaceuticals, Inc., priority 2018, dated 2023).

Read-outs that look alike come from different tables or passages of the source.

The conditions of data set [1]: rcm bond, Grubbs II, toluene, 80.0 °C.
The next data set has as its target Human Factor D (Homo sapiens (Human), UniProt P00746). Description: Human Factor D assay. The format is biochemical. In a few lines: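 Serum-purified human Factor D (80 nM final) preincubated 5 min at room temperature with compound in 50 mM Tris, 1M NaCl, pH 7.5. Reaction started with Z-L-Lys-SBzI and DTNB (100 μM each); A405 read every 30 s for 30 min. IC50 from nonlinear regression of reaction rates versus compound concentration.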

The mark [2] stands for this setting: Human Factor D 80 nM, substrate Z-L-Lys-SBzl, A405, read-out: IC50 (Stars).

Human Factor D, sequence (P00746 26-253): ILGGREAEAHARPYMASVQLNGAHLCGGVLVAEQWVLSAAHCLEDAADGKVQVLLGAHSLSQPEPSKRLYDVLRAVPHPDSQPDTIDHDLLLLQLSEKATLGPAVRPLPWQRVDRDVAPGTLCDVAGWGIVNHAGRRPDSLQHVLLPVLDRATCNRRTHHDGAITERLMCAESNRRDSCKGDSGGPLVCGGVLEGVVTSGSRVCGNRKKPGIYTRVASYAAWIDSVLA

`CC(=O)c1nn2c3c(cc(N4CCCC4)cc13)CC=CCCCC(=O)NC[C@@]13C[C@@H](C(=O)Nc4nc(C(F)(F)F)ccc4C)N(C(=O)C2)[C@@H]1C3` returned a ring closure, isolated yield in data set [1] (from C=CCCCC(=O)NC[C@@]12C[C@@H](C(=O)Nc3nc(C(F)(F)F)ccc3C)N(C(=O)Cn3nc(C(C)=O)c4cc(N5CCCC5)cc(CC=C)c43)[C@@H]1C2, 17-membered ring, 2.0 mM, 16.0 h) of 92.5%.
In turn, `CC(=O)c1nn2c3c(cc(-c4cnc(C)nc4)cc13)CC=CCC[C@@H](C)C(=O)NC[C@@]13C[C@@H](C(=O)Nc4cc(F)cc(Br)n4)N(C(=O)C2)[C@@H]1C3` returned a ring closure, isolated yield in data set [1] (from C=CCC[C@@H](C)C(=O)NC[C@@]12C[C@@H](C(=O)Nc3cc(F)cc(Br)n3)N(C(=O)Cn3nc(C(C)=O)c4cc(-c5cnc(C)nc5)cc(CC=C)c43)[C@@H]1C2, 17-membered ring, 1.63 mM, 16.0 h) of 72.6%.
With `CC(=O)c1nn2c3c(cc(Oc4ncc(C)cn4)cc13)CC=CCCCC(=O)NC[C@@]13C[C@@H](C(=O)Nc4nc(C(F)(F)F)ccc4C)N(C(=O)C2)[C@@H]1C3`, the ring closure, isolated yield in data set [1] (from C=CCCCC(=O)NC[C@@]12C[C@@H](C(=O)Nc3nc(C(F)(F)F)ccc3C)N(C(=O)Cn3nc(C(C)=O)c4cc(Oc5ncc(C)cn5)cc(CC=C)c43)[C@@H]1C2, 17-membered ring, 1.5 mM) is 61.5%.
In data set [1] (from C=CCCCC(=O)NC[C@@]12C[C@@H](C(=O)Nc3nc(C(F)(F)F)ccc3C)N(C(=O)Cn3nc(C(C)=O)c4cc(-c5nnc(C)o5)cc(CC=C)c43)[C@@H]1C2, 17-membered ring, 1.36 mM, 16.0 h), `CC(=O)c1nn2c3c(cc(-c4nnc(C)o4)cc13)CC=CCCCC(=O)NC[C@@]13C[C@@H](C(=O)Nc4nc(C(F)(F)F)ccc4C)N(C(=O)C2)[C@@H]1C3` gave a ring closure, isolated yield of 83.2%.
With `C=C(C)c1cc2c3c(c1)c(C(C)=O)nn3CC(=O)N1[C@H](C(=O)Nc3nc(C(F)(F)F)ccc3C)C[C@@]3(CNC(=O)CCCC=CC2)C[C@@H]13`, in data set [1] (from C=CCCCC(=O)NC[C@@]12C[C@@H](C(=O)Nc3nc(C(F)(F)F)ccc3C)N(C(=O)Cn3nc(C(C)=O)c4cc(C(=C)C)cc(CC=C)c43)[C@@H]1C2, 17-membered ring, 1.43 mM, 16.0 h), the ring closure, isolated yield came out at 21.7%.
Turning to `CC(=O)c1nn2c3c(cc(-c4cnc(C)cn4)cc13)CC=CCC[C@@H](C)C(=O)NC[C@@]13C[C@@H](C(=O)Nc4nc(C(F)(F)F)ccc4C)N(C(=O)C2)[C@@H]1C3`, the ring closure, isolated yield in data set [1] (from C=CCC[C@@H](C)C(=O)NC[C@@]12C[C@@H](C(=O)Nc3nc(C(F)(F)F)ccc3C)N(C(=O)Cn3nc(C(C)=O)c4cc(-c5cnc(C)cn5)cc(CC=C)c43)[C@@H]1C2, 17-membered ring, 1.32 mM) came to 62.1%.
In data set [1] (the molecule shown is the open-chain precursor, 17-membered ring, 1.72 mM), “(1R,3S,5R)-2-(2-(3-Acetyl-7-allyl-5-(2-methylpyrimidin-5-yl)-1H-indazol-1-yl)acetyl)-N-(3-methyl-6-(trifluoromethyl)pyridin-2-yl)-5-(((R)-2-methylhex-5-amido)methyl)-2-azabicyclo[3.1.0]hexane-3-carboxamide” registered a ring closure, isolated yield of 47.9%.
Take `CC(=O)c1nn2c3c(cc(-c4cnc(C)nc4)cc13)CC=CCCCC(=O)N(C)C[C@@]13C[C@@H](C(=O)Nc4cc(F)cc(Br)n4)N(C(=O)C2)[C@@H]1C3`: the ring closure, isolated yield in data set [1] (from C=CCCCC(=O)N(C)C[C@@]12C[C@@H](C(=O)Nc3cc(F)cc(Br)n3)N(C(=O)Cn3nc(C(C)=O)c4cc(-c5cnc(C)nc5)cc(CC=C)c43)[C@@H]1C2, 17-membered ring, 1.29 mM, 16.0 h) is 94.5%.
Consider `CC(=O)c1nn2c3c(cc(-c4cnc(C)nc4)cc13)NC(=O)CCC=CCOCC13CC(C(=O)Nc4nc(C(F)(F)F)ccc4C)N(C(=O)C2)C1C3` (stereo not drawn), for which the ring closure, isolated yield in data set [1] (from C=CCCC(=O)Nc1cc(-c2cnc(C)nc2)cc2c(C(C)=O)nn(CC(=O)N3C(C(=O)Nc4nc(C(F)(F)F)ccc4C)CC4(COCC=C)CC34)c12, 17-membered ring, 1.35 mM) came out at 65.8%.
Compound `CC(=O)c1nn2c3c(cc(-c4cnc(C)nc4)cc13)CC=CCCCCN(C(=O)OC(C)(C)C)C[C@@]13C[C@@H](C(=O)Nc4nc(C(F)(F)F)ccc4C)N(C(=O)C2)[C@@H]1C3` showed a ring closure, isolated yield in data set [1] (from C=CCCCCN(C[C@@]12C[C@@H](C(=O)Nc3nc(C(F)(F)F)ccc3C)N(C(=O)Cn3nc(C(C)=O)c4cc(-c5cnc(C)nc5)cc(CC=C)c43)[C@@H]1C2)C(=O)OC(C)(C)C, 17-membered ring, 1.2 mM) of 60.4%.
Turning to `CC(=O)c1nn2c3c(cc(NC(=O)OC(C)(C)C)cc13)CC=CCCCC(=O)NC[C@@]13C[C@@H](C(=O)Nc4nc(C(F)(F)F)ccc4C)N(C(=O)C2)[C@@H]1C3`, the ring closure, isolated yield in data set [1] (from C=CCCCC(=O)NC[C@@]12C[C@@H](C(=O)Nc3nc(C(F)(F)F)ccc3C)N(C(=O)Cn3nc(C(C)=O)c4cc(NC(=O)OC(C)(C)C)cc(CC=C)c43)[C@@H]1C2, 17-membered ring, 1.3 mM, 16.0 h) is 78.9%.
In turn, `CC(=O)c1nn2c3c(cc(-c4cnc(C)nc4)cc13)CC=CCCC(C)(C)C(=O)NC[C@@]13C[C@@H](C(=O)Nc4nc(C(F)(F)F)ccc4C)N(C(=O)C2)[C@@H]1C3` came in with a ring closure, isolated yield in data set [1] (from C=CCCC(C)(C)C(=O)NC[C@@]12C[C@@H](C(=O)Nc3nc(C(F)(F)F)ccc3C)N(C(=O)Cn3nc(C(C)=O)c4cc(-c5cnc(C)nc5)cc(CC=C)c43)[C@@H]1C2, 17-membered ring, 1.6 mM, 16.0 h) of 71.3%.
In the case of `CC(=O)c1nn2c3c(cc(-c4cnc(C)nc4)cc13)CCCCCCC=CCc1ccc(Br)nc1NC(=O)[C@H](C)N(C)C(=O)C2`, the ring closure, isolated yield in data set [1] (from C=CCCCCCCc1cc(-c2cnc(C)nc2)cc2c(C(C)=O)nn(CC(=O)N(C)[C@@H](C)C(=O)Nc3nc(Br)ccc3CC=C)c12, 20-membered ring, 1.4 mM, 16.0 h) worked out at 63.8%.
In general, IC50 refers to the concentration at which inhibition is half-maximal. Consider `CC(=O)c1nn2c3c(cc(N)cc13)CCCCCCC(=O)NC[C@@]13C[C@@H](C(=O)Nc4nc(C(F)(F)F)ccc4C)N(C(=O)C2)[C@@H]1C3` [Compound 15, (4^1R,4^3S,4^5R)-1^3-acetyl-1^5-amino-N-(3-methyl-6-(trifluoromethyl)pyridin-2-yl)-3,7-dioxo-1^1H-4^2,6-diaza-1(1,7)-indazola-4(2,5)-bicyclo[3.1.0]hexanacyclotridecaphane-4^3-carboxamide], for which the half-maximal inhibitory concentration (IC50) on Human Factor D (setting [2]) was < 1 µM.
Regarding `CC(=O)c1nn2c3c(cc(-c4cnc5cc(C)nn5c4)cc13)CCCCC[C@@H](C)C(=O)NC[C@@]13C[C@@H](C(=O)Nc4nc(C(F)(F)F)ccc4C)N(C(=O)C2)[C@@H]1C3` [Compound 22, (4^1R,4^3S,4^5R,8R)-1^3-acetyl-8-methyl-N-(3-methyl-6-(trifluoromethyl)pyridin-2-yl)-15-(2-methylpyrazolo[1,5-a]pyrimidin-6-yl)-3,7-dioxo-1^1H-4^2,6-diaza-1(1,7)-indazola-4(2,5)-bicyclo[3.1.0]hexanacyclotridecaphane-4^3-carboxamide], on Human Factor D (setting [2]), the IC50 was < 1 µM.
Same read-out and setting: as for `CC(=O)c1nn2c3c(cc(-c4cnc(C)nc4)cc13)CCCCC[C@@H](C)C(=O)NC[C@@]13C[C@@H](C(=O)Nc4ccc(F)c(Br)n4)N(C(=O)C2)[C@@H]1C3` [Compound 16, (4^1R,4^3S,4^5R,8R)-1^3-acetyl-N-(6-bromo-5-fluoropyridin-2-yl)-8-methyl-1^5-(2-methylpyrimidin-5-yl)-3,7-dioxo-1^1H-4^2,6-diaza-1(1,7)-indazola-4(2,5)-bicyclo[3.1.0]hexanacyclotridecaphane-4^3-carboxamide], the figure is < 1 µM; as for `CC(=O)c1nn2c3c(cc(CCC(C)C)cc13)CCCCCCC(=O)NC[C@@]13C[C@@H](C(=O)Nc4nc(C(F)(F)F)ccc4C)N(C(=O)C2)[C@@H]1C3` [Compound 20, (4^1R,4^3S,4^5R)-1^3-acetyl-1^5-isopentyl-N-(3-methyl-6-(trifluoromethyl)pyridin-2-yl)-3,7-dioxo-1^1H-4^2,6-diaza-1(1,7)-indazola-4(2,5)-bicyclo[3.1.0]hexanacyclotridecaphane-4^3-carboxamide], < 1 µM.
In the case of `CC(=O)c1nn2c3c(cc(-c4cnc(C)nc4)cc13)CNCCCCCOC[C@@]13C[C@@H](C(=O)Nc4nc(C(F)(F)F)ccc4C)N(C(=O)C2)[C@@H]1C3` [Compound 36, (4^1R,4^3S,4^5S)-1^3-acetyl-N-(3-methyl-6-(trifluoromethyl)pyridin-2-yl)-1^5-(2-methylpyrimidin-5-yl)-3-oxo-1^1H-6-oxa-4^2,12-diaza-1(1,7)-indazola-4(2,5)-bicyclo[3.1.0]hexanacyclotridecaphane-4^3-carboxamide], the IC50 at Human Factor D (setting [2]) is < 1 µM.
Still for that read-out and setting: next, `CC(=O)c1nn2c3c(cc(-c4cnc(C)nc4)cc13)NC(=O)CCCCCOCC13CC(C(=O)Nc4nc(C(F)(F)F)ccc4C)N(C(=O)C2)C1C3` [Compound 60, (41R,43S,45S)-13-acetyl-N-(3-methyl-6-(trifluoromethyl)pyridin-2-yl)-15-(2-methylpyrimidin-5-yl)-3,12-dioxo-11H-6-oxa-42,13-diaza-1(1,7)-indazola-4(2,5)-bicyclo[3.1.0]hexanacyclotridecaphane-43-carboxamide]: < 1 µM.
Compound `CC(=O)c1nn2c3c(cc(-c4cnc(C)nc4)cc13)CCCCCCCCCCN([C@@H](C)C(=O)Nc1nc(Br)ccc1C)C(=O)C2` [Compound 35, (S)-2-(2-acetyl-4-(2-methylpyrimidin-5-yl)-17-oxo-8,9,10,11,12,13,14,15,17,18-decahydro-6H-[1,4]diazacyclohexadecino[15,16,1-hi]indazol-16(7H)-yl)-N-(6-bromo-3-methylpyridin-2-yl)propanamide] registered an IC50 against Human Factor D of 1 to 10 µM.
Take `CC(=O)c1nn2c3c(cc(OC(C)C)cc13)CCCCCCC(=O)NC[C@@]13C[C@@H](C(=O)Nc4nc(C(F)(F)F)ccc4C)N(C(=O)C2)[C@@H]1C3` [Compound 19, (4^1R,4^3S,4^5R)-1^3-acetyl-1^5-isopropoxy-N-(3-methyl-6-(trifluoromethyl)pyridin-2-yl)-3,7-dioxo-1^1H-4^2,6-diaza-1(1,7)-indazola-4(2,5)-bicyclo[3.1.0]hexanacyclotridecaphane-4^3-carboxamide]: the IC50 at Human Factor D (setting [2]) is < 1 µM.
